# Measurements published in patent US20230141887A1, “CRYSTAL FORM OF DIAZASPIROPYRAN COMPOUND” (MEDSHINE DISCOVERY INC., priority 2020, published 2023).
# Numbering of substitutions follows the chain as printed.
# What was measured:
# [1] = molecular target: T1, FLT3(N841I) (Homo sapiens, UniProt P36888, N841I); assay type: binding
# T1 sequence (P36888 27-993 N841I): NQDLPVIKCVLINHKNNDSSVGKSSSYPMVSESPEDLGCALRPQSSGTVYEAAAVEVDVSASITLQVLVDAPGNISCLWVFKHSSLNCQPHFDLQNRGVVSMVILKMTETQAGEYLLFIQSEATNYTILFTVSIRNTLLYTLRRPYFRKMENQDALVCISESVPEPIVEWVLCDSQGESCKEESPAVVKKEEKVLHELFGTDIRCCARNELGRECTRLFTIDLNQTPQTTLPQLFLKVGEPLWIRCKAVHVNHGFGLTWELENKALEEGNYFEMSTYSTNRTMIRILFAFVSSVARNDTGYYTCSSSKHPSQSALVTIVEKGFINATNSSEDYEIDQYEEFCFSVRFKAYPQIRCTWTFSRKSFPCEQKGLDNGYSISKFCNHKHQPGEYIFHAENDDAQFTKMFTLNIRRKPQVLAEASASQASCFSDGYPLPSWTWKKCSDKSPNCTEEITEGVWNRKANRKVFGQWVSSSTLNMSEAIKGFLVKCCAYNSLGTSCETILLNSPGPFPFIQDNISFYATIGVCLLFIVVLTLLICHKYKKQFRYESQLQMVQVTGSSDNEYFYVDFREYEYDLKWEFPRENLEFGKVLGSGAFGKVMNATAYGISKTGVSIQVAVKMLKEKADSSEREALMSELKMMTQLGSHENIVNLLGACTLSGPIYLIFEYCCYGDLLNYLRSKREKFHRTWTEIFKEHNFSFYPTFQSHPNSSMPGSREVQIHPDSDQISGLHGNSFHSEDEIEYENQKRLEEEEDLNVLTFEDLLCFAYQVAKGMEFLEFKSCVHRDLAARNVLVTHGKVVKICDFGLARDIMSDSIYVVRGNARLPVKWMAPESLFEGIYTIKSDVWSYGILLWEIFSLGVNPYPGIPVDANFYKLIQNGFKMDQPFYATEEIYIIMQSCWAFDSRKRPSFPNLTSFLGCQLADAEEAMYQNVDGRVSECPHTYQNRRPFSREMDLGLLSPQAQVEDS
# Procedure: (§1) The assay was carried out using KINOMEscan™ technology. The assay compounds were stored in 100% DMSO. The assay was carried out by means of 3-fold dilution and 11-point fitting. All compounds used for Kd determination were dispersed by ultrasound, then directly diluted and tested. All reactions were carried out in a 384-well polypropylene plate. Each portion has a final volume of 0.02 ml. The plate was incubated with shaking at room temperature for 1 hour, and then processed. The kinase concentration in the eluent was finally determined by qPCR method. Kd was obtained by fitting.
# [2] = molecular target: T2, FLT3(K663Q) (Homo sapiens, UniProt P36888, K663Q); assay type: binding
# T2 sequence (P36888 27-993 K663Q): T1 sequence (P36888 27-993 N841I) with K637Q, I815N
# Procedure: as §1
smiles,measurement,setting,value
CCc1nc(C(N)=O)c(Nc2ccc(N3CCC4(CCN(C)CC4)CC3)c(C)c2)nc1NC1CCOCC1.O=C(O)C(F)(F)F,Kd,[1],5.4 nM
same,Kd,[2]; FLT3(K663Q),10 nM
same,activity higher than that of the known compound B,"[2]; FLT3 (K663Q), ratio of Kd versus compound B",5.9 times
